Where a SMILES comes first, the peptide text is derived from it. The star is where a group is joined. Cbz = O=C(OCc1ccccc1)*
What was measured:
[1] = target: Chymotrypsinogen A (Bos taurus) (UniProt P00766); assay: The compound was tested for the inhibition of alpha-Chymotrypsin, activity expressed as IC50
[2] = target: Chymotrypsinogen A (Bos taurus) (UniProt P00766); assay: as above; remark: listed apart in the source

IC50 [1]: 950 nM
Ki [2]: 2200 nM
Compound: C[C@H](NC(=O)OCc1ccccc1)C(=O)N[C@@H](C)C(=O)N[C@H](C=O)Cc1ccccc1 [{1-[1-(1-Benzyl-2-oxo-ethylcarbamoyl)-ethylcarbamoyl]-ethyl}-carbamic acid benzyl ester] (Cbz-Ala-Ala-Phe-aldehyde)
